Patent publication US9023800B2, “Peptides for the treatment of oxidative stress related disorders” (Ramot at Tel-Aviv University Ltd., priority 2009, dated 2015)

Key:
[1] = tested on: human neuroblastoma SH-SY5Y cells; assay: Serum deprivation in neuroblastoma cells; format: cell-based; settings: during serum deprivation, vs saline (FIG. 4A)
Procedure: FIG. 4A is a bar graph illustrating that DJ-1-related peptides are protective against serum deprivation.
(§1) Human neuroblastoma SH-SY5Y cells are obtained from the American tissue Type Culture Collection (ATCC, Rockville, USA). Cells are grown under sterile conditions as monolayer in DMEM medium supplemented with 10% heat-inactivated fetal calf serum (FCS), gentamicin ([…]), and glutamine (5 mM) in a 5% CO2 humidified atmosphere at 37° C. The medium is routinely changed every 4 days, and cells are passaged every 8 days. All experiments are performed on cells which are near confluence.

[2] = tested on: neuronally differentiated murine neural stem cells; assay: Oxidative insult (H2O2) in neuronally differentiated neural stem cells; format: cell-based; settings: pretreated vs saline before exposure to hydrogen peroxide (FIG. 6)
Procedure: Neural progenitor/stem cells are isolated from murine cortex of postnatal c57/bl mice and cultured as neurospheres. Neural and astroglial differentiation are induced.
Susceptibility of differentiated and undifferentiated neural progenitor/stem cells to oxidative and toxic insults are determined with and without prior pretreatment with DJ-1 related peptides.
Susceptibility of differentiated and undifferentiated neural progenitor/stem cells to oxidative and toxic insults was determined with and without prior pretreatment with DJ-1 related peptides, as illustrated in FIG. 6.

[3] = tested on: HaCaT cells; assay: Protection against UV radiation in keratinocytes; format: cell-based, human; settings: HaCaT pretreated vs saline before UV radiation (FIG. 14)
Procedure: The immortalized human HaCaT keratinocyte cells are used to test DJ-1 related peptides ability to protect against UV radiation induced injury. Cells are maintained in minimal essential medium containing 0.075 mM Ca^2+ (MEM-75) and 10% FCS in 5 cm Petri-dishes and subcultured every 3-4 days.
Cultured keratinocytes were used to examine the ability of DJ-1 related peptides to protect against the damaging effects of UV radiation.

[4] = tested on: human neuroblastoma SH-SY5Y cells; assay: 6-hydroxydopamine toxicity in neuroblastoma cells; format: cell-based
Procedure: as §1, with “confluence. […]” for “confluence.”
(§2) Cells are seeded in 96-wells plates at the concentration of 5000 cells per well and allowed to attach over night. […] Alamar blue fluorescence is measured by FLUOstar spectrofluorometer at the excitation wavelength of 544 nm and the emission wavelength of 590 nm. […]
(§3) LDH released by damaged cells into the cell culture supernatant is determined using LDH cytotoxicity detection kit (Clontech laboratories, CA, USA), according to the manufacturer's instructions. […] The percentage of dead cells is calculated by the following formula of the absorbance values: (triplicate absorbance−low control)/(maximum absorption−low control)×100.
Hoechst 33342 enters cells with intact or damaged membranes and stains DNA in blue, thereby allowing evaluation of cell number in each well as well. […] Excitation is performed at 346 nm and emission wavelength is determined at 460 nm. […]

[5] = tested on: human neuroblastoma SH-SY5Y cells; assay: Hydrogen peroxide (H2O2) oxidative stress in neuroblastoma cells; format: cell-based
Procedure: as §1
(§4) Neuroblastoma cells are contacted with hydrogen peroxide (H2O2) (0-1 mM; Sigma, Chemicals Co., St. Louis, Mo., USA), 6-hydroxydopamine (0-100 μM; Sigma, Chemicals Co., St. Louis, Mo., USA), dopamine (0-500 μM; Sigma, Chemicals Co., St. Louis, Mo., USA) and 3-(4-morpholinyl)-sydnonimine (SIN-I) (0-5 mM; Sigma), (which is a peroxynitrite free radical donor), in order to produce ROS formation.
Several methods are used in order to determine the toxic effects of oxidative insults, neurotoxins and dopamine on cellular metabolic activity, mitochondrial activity and cell viability.
as §2, §3
Hoechst 33342 enters cells with intact or damaged membranes and stains DNA in blue, thereby allowing evaluation of cell number in each well as well. A FLUOstar spectrofluorometer microplate reader may be used in order to evaluate the cell number in each well following exposure to different doses of various toxins. Excitation is performed at 346 nm and emission wavelength is determined at 460 nm. […]

[6] = tested on: 6-hydroxydopamine hemiparkinsonian mice model; assay: In vivo 6-hydroxydopamine induced hemiparkinsonian mice model
[7] = tested on: NSC-34 cells; assay: Hydrogen peroxide toxicity in cellular model of ALS; format: cell-based; settings: NSC-34 pretreated vs saline before hydrogen peroxide (FIG. 12A)
Source text: (§5) NSC-34 cells were used as a cellular model for ALS. Increasing doses of hydrogen peroxide and SIN-I, an NO donor, which are implicated in the pathogenesis of ALS were used.

[8] = tested on: primary mixed neuronal and glial cultures obtained from cortex of postnatal wild type C57/bl mice; assay: 6-hydroxydopamine toxicity in primary cultures; format: cell-based; settings: increasing concentrations of 6-hydroxydopamine (FIGS. 5A-B)
Procedure: (§6) Murine neuronal and astrocytes primary cultures derived from cortical tissues of post natal c57/bl mice are prepared and used in order to examine protective potential of DJ-1 related peptides.
(§7) T protective effects of DJ-1 peptides on primary cultures, and on differentiated and undifferentiated neural stem cells obtained from C57/bl mice brains were evaluated. […] Specifically, FIGS. 5A-B illustrate protection of Tat 2A against oxidative and toxic injuries in primary mixed neuronal and astrocytes cultures from post natal mice brains. Neural progenitor/stem cells were isolated from murine cortex of postnatal c57/bl mice and cultured as neuro spheres. Neural and astroglial differentiation were induced.

[9] = tested on: NSC-34 cells; assay: SIN-I toxicity in cellular model of ALS; format: cell-based; settings: NSC-34 pretreated vs saline before SIN-I (FIG. 12B)
Procedure: as §4, §5

[10] = tested on: neuroblastoma cells overexpressing A53T alpha-synuclein; assay: Hydrogen peroxide toxicity in cells overexpressing mutant alpha-synuclein; format: cell-based, human; settings: A53T alpha-synuclein cells exposed to hydrogen peroxide (FIG. 10)
Procedure: The coding region of human wild-type or A53T mutant alpha-synuclein cDNA is subcloned into pcDNA3.1-plasmid (BD Biosciences, Clontech). In order to achieve overexpression of A53T mutant alpha-synuclein, SH-SY5Y neuroblastoma cells are stably transfected with the plasmid containing A53T mutant alpha-synuclein. Transfections are performed using the lipofectamine 2000 reagent (Invitrogen, Carlsbad, Calif.). Selection of transfected cells is performed by treating the cells with lethal doses of geniticin (G-418). Naive neuroblastoma cells as well as cells stably transfected with the empty vector are used as controls.
Stable transfections are verified by measuring alpha-synuclein mRNA and protein levels using real-time PCR and Western blotting.
A53T mutant alpha-synuclein is one of the causes for genetically inherited Parkinson's Disease. Neuroblastoma cells overexpressing mutated alpha-synuclein were used as a cellular platform for Parkinson's Disease. In order to achieve overexpression of A53T mutant alpha-synuclein, SH-SY5Y neuroblastoma cells were stably transfected with the plasmid containing A53T mutant alpha-synuclein.

[11] = tested on: primary mixed neuronal and glial cultures obtained from cortex of postnatal wild type C57/bl mice; assay: Hydrogen peroxide toxicity in primary cultures; format: cell-based; settings: increasing concentrations of hydrogen peroxide (FIGS. 5A-B)
Procedure: as §6, §7

[12] = tested on: human neuroblastoma SH-SY5Y cells; assay: Dopamine toxicity in neuroblastoma cells; format: cell-based; settings: SH-SY5Y (FIG. 1F)
Procedure: as §1, §4
Cells are seeded in 96-wells plates at the concentration of 5000 cells per well and allowed to attach over night. On the following day, the cells are exposed to increasing doses of dopamine (0-500 uM) for 4 hours in serum free medium. Alamar blue is a non toxic reagent which incorporates a redox indicator that changes color in response to metabolic activity. […] Alamar blue fluorescence is measured by FLUOstar spectrofluorometer at the excitation wavelength of 544 nm and the emission wavelength of 590 nm. […]

[13] = tested on: human neuroblastoma SH-SY5Y cells; assay: Cell proliferation by [3H]thymidine incorporation; format: cell-based; settings: exposure to the peptides (FIG. 1D)
Procedure: FIGS. 1A-F are bar graphs illustrating that DJ-1-related peptide TAT 2a (SEQ ID NO: 24) is protective in vitro against oxidative and toxic insults. […] Cell proliferation was measured by quantifying [^3H]thymidine incorporation. […] The presented experiments were done on human neuroblastoma SH-SY5Y cells, and repeated at least 3 times. *p<0.05, as compared to control cells treated with vehicle and exposed to the same toxic insult.
as §1

[14] = tested on: MPTP Parkinson's model; assay: MPTP Parkinson's model in mice; format: in vivo; settings: subcutaneous 0.4 mM; MPTP 20 mg/kg i.p. 5 consecutive days; 18 days later (FIG. 17)
Procedure: In order to generate an animal model for Parkinson's disease, mice were treated with 1-methyl-4-phenyl-1,2,3,6-tetrahydropyridine (MPTP). 5 mice (C57/bl) were injected for 5 consecutive days with 20 mg/kg MPTP (i.p.) in the presence and absence of the DJ-1 related peptide (0.4 mM subcutaneous; SEQ ID NO: 25). 18 days later, the mice were sacrificed and the dopamine level, in the two hemispheres was measured by HPLC.

Substance: GAEEME (Artificial seqence) [peptide I]
- viability [1]: Increased viability
- viability [2]: Increased viability

Substance: KGAEEMETVIPV (Artificial seqence) [short 2a]
- viability [1]: Increased viability

Substance: VDVMRRAGI (Artificial seqence) [peptide II]
- metabolic activities [3]: Increased metabolic activities
- viability [1]: Increased viability
- viability ([4]; SH-SY5Y pretreated vs saline before 6-hydroxydopamine (FIG. 3)): Increased viability
- viability [2]: Increased viability

Substance: YGRKKRRKGAEEMETVIPVD (Artificial seqence) [TAT 2a]
- metabolic activities [3]: Increased metabolic activities
- cell viability ([5]; exposure to H2O2, vs saline alone (FIG. 1A)): Increased cell viability
- mitochondrial damage ([5]; exposure to H2O2, vs saline alone (FIG. 1B)): decreased mitochondrial damage
- metabolic activity ([5]; exposure to H2O2, vs saline alone (FIG. 1C)): increased metabolic activity
- fraction of the lesioned mice that rotated in response to amphetamine injection ([6]; 50 μg IV 4 hours before 6-hydroxydopamine lesioning (FIG. 16B)): smaller fraction
- amphetamine-induced rotations ([6]; 50 μg IV 4 hours before 6-hydroxydopamine lesioning, vs saline (FIG. 16A)): Significantly reduced
- fraction of the lesioned mice that rotated in response to amphetamine injection ([6]; intrastriatal 2 μl of 100 μM one hour before lesioning (FIG. 15B)): smaller fraction
- amphetamine-induced rotations ([6]; intrastriatal 2 μl of 100 μM one hour before lesioning, 2 and 4 weeks after lesioning, vs saline (FIG. 15A)): Significantly reduced
- accelerating Rotarod examination ([6]; intrastriatal peptide vs saline-treated controls, p=0.02): significant difference
- 6-hydroxydopamine-induced loss of tyrosine hydroxylase (TH) staining in the lesioned striatum ([6]; intrastriatal peptide, immunohistochemical staining): reversed
- viability [7]: Increased viability
- protection against 6-hydroxydopamine toxicity [8]: protection
- viability [9]: Increased viability
- viability [10]: Significantly increased viability
- protection against H2O2 toxicity [11]: protection
- protection against 6-hydroxydopamine toxicity ([4]; SH-SY5Y (FIG. 1E)): Protection
- protection against dopamine toxicity [12]: Protection
- cell proliferation ([3H]thymidine incorporation) [13]: no increased cell proliferation

Substance: YGRKKRRTVIPVDVMRRAGI (Artificial seqence) [TAT 2b]
- protection against MPTP Parkinson's model (dopamine level by HPLC) [14]: protects
- viability [7]: Increased viability
- viability [9]: Increased viability
